Data published in US20080051387A1, “TETRAHYDROPYRIDO[3,4-D]PYRIMIDINES AND RELATED ANALOGUES” (priority 2006, published 2008).

Target: T1, chimeric human H3 receptor (Homo sapiens, UniProt Q9Y5N1)
T1 construct: rat Galpha-i2 (Gnai2, rat); made in house; host or cells: Sf9 insect cells (baculovirus); P2 membranes
Assay: Chimeric human H3 receptor GTP binding assay (agonist-stimulated GTP-gamma35S binding, Example 7)
Format: biochemical
Conditions: P2 membranes of Sf9 cells, 1 μM histamine as agonist, Ki from IC50 by Cheng-Prusoff; read-out: Ki
Excerpt: This Example illustrates a representative assay for evaluating agonist-stimulated GTP-gamma^35S binding (“GTP binding”) activity. […] This agonist-stimulated GTP binding activity can also be used to detect partial agonism mediated by antagonist compounds. A compound analyzed in this assay is referred to herein as a “test compound.”
Four independent baculoviral stocks (one directing the expression of the chimeric human H3 receptor and three directing the expression of each of the three subunits of a heterotrimeric G-protein) are used to infect a culture of Sƒ9 cells as described above. P2 membranes are prepared as described above, and agonist-stimulated GTP binding on the P2 membranes is assessed using histamine (Sigma Chemical Co., St. Louis, Mo.) as agonist in order to ascertain that the receptor/G-protein-alpha-beta-gamma combination(s) yield a functional response as measured by GTP binding. P2 membranes are resuspended by Dounce homogenization (tight pestle) in GTP binding assay buffer (50 mM Tris pH 7.4, 120 mM NaCl, 5 mM MgCl2, 2 mM EGTA, 1 mg/ml BSA, 0.2 mg/ml bacitracin, 0.02 mg/ml aprotinin, 0.01 mg/ml saponin, 10 μM GDP) and added to assay tubes at a concentration of 35 μg protein/reaction tube. After adding increasing doses of histamine at concentrations ranging from 10-12 M to 10^−5 M, reactions are initiated by the addition of 125 pM GTP-gamma^35S (PERKIN ELMER; Boston, Mass.) with a final assay volume of 0.20 ml. In competition experiments, non-radiolabeled test compounds are added to separate reactions at concentrations ranging from 10^−10 M to 10^−6 M along with 1 μM histamine to yield a final volume of 0.20 ml.
Neutral antagonists are antagonists that are substantially free of inherent agonist activity, and include those test compounds that reduce the histamine-stimulated GTP binding activity towards, but not below, baseline levels. In contrast, in the absence of added histamine, inverse agonists reduce the GTP binding activity of the receptor-containing membranes below baseline.
After a 60-min incubation at room temperature, reactions are terminated by vacuum filtration over WHATMAN GF/C filters (pre-soaked in wash buffer, 0.1% BSA) followed by washing with ice-cold wash buffer (50 mM Tris pH 7.4, 120 mM NaCl). The amount of receptor-bound (and thereby membrane-bound) GTP-gamma^35S is determined by measuring the filter-bound radioactivity, preferably by liquid scintillation spectrometry of the washed filters. Non-specific binding is determined in parallel assays including 10 μM unlabeled GTP-gammaS and typically represents less than 5 percent of total binding. Data is expressed as percent above basal (baseline). The results of GTP binding experiments are analyzed using SIGMAPLOT software (SPSS Inc., Chicago, Ill.). IC50 values are calculated by non-linear regression analysis of dose-response curves using Kaleidograph (Synergy Software, Reading, Pa.).
Alternatively the data is analyzed as follows. First, the average bound radioactivity from negative control wells (no agonist) is subtracted from the bound radioactivity detected for each of the other experimental wells. Second, average bound radioactivity is calculated for the positive control wells (agonist wells). Then, percent inhibition for each compound tested is calculated using the equation: [formula]
Calculated IC50 values are converted to Ki values by the Cheng-Prusoff correction (Cheng and Prusoff (1973) Biochem. Pharmacol. 22(23):3099-3108). Accordingly, the following equation: Ki=IC50/(1+[L]/EC50) is used, where [L] is the histamine concentration in the GTP binding assay, and EC50 is the concentration of histamine producing a 50% response, as determined by a dose-response analysis using concentrations of histamine ranging from 10^−10 M to 10^−6 M. […]

T1 sequence (Q9Y5N1 with tags, fused parts or gaps): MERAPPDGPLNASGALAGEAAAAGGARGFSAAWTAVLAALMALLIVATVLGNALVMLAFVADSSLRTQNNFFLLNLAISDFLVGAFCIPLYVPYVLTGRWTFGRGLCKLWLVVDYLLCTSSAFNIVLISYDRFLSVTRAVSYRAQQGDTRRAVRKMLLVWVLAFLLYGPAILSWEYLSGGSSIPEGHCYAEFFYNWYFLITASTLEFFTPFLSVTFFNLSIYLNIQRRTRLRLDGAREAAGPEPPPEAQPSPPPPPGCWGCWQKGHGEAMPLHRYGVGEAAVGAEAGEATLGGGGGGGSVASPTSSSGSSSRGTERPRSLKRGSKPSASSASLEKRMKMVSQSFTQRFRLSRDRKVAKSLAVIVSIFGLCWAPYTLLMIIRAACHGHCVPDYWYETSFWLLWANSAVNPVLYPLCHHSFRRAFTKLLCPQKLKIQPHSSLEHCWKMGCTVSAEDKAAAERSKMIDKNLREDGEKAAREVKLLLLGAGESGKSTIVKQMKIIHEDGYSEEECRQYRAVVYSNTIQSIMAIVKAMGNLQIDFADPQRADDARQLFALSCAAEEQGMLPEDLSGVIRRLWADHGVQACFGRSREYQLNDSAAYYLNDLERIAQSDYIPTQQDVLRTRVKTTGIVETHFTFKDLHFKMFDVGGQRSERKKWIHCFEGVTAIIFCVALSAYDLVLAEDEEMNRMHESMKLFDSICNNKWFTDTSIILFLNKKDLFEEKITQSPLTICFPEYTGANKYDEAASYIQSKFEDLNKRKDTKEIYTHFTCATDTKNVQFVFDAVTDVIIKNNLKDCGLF

Ki, < 1000 nM:
c1ccc(CN2CCc3nc(N4CCN(C5CCC5)CC4)ncc3C2)cc1 [Compound 605, 6-benzyl-2-(4-cyclobutylpiperazin-1-yl)-5,6,7,8-tetrahydropyrido[4,3-d]pyrimidine]
CCN1CCc2nc(N3CCN(C4CCC4)CC3)ncc2C1 [Compound 606, 2-(4-cyclobutylpiperazin-1-yl)-6-ethyl-5,6,7,8-tetrahydropyrido[4,3-d]pyrimidine]
c1nc(N2CCN(C3CCC3)CC2)nc2c1CN(CC1CCCCC1)CC2 [Compound 607, 2-(4-cyclobutylpiperazin-1-yl)-6-(cyclohexylmethyl)-5,6,7,8-tetrahydropyrido[4,3-d]pyrimidine]
CC(=O)N1CCc2nc(N3CCN(C4CCC4)CC3)ncc2C1 [Compound 608, 6-acetyl-2-(4-cyclobutylpiperazin-1-yl)-5,6,7,8-tetrahydropyrido[4,3-d]pyrimidine]
c1nc(N2CCN(C3CCC3)CC2)nc2c1CN(C1CCC1)CC2 [Compound 609, 6-cyclobutyl-2-(4-cyclobutylpiperazin-1-yl)-5,6,7,8-tetrahydropyrido[4,3-d]pyrimidine]
CC(=O)c1ccc(N2CCc3nc(N4CCN(C5CCC5)CC4)ncc3C2)nc1 [Compound 610, 1-{6-[2-(4-cyclobutylpiperazin-1-yl)-7,8-dihydropyrido[4,3-d]pyrimidin-6(5H)-yl]pyridin-3-yl}ethanone]
CNC(=O)c1ccc(N2CCc3nc(N4CCN(C5CCC5)CC4)ncc3C2)nc1 [Compound 648, 6-[2-(4-cyclobutylpiperazin-1-yl)-7,8-dihydropyrido[4,3-d]pyrimidin-6(5H)-yl]-N-methylnicotinamide]

Same assay, conditions: assay of Example 7; symbol "*" in column headed Ki; read-out: Ki

Ki, < 1000 nM:
c1nc(N2CCN(C3CCC3)CC2)nc2c1CCN(C1CCOCC1)CC2 [Compound 591, 2-(4-cyclobutylpiperazin-1-yl)-7-(tetrahydro-2H-pyran-4-yl)-6,7,8,9-tetrahydro-5H-pyrimido[4,5-d]azepine]
FC(F)(F)CN1CCc2cnc(N3CCN(C4CCC4)CC3)nc2CC1 [Compound 592, 2-(4-cyclobutylpiperazin-1-yl)-7-(2,2,2-trifluoroethyl)-6,7,8,9-tetrahydro-5H-pyrimido[4,5-d]azepine]
COCCN1CCc2cnc(N3CCN(C4CCC4)CC3)nc2CC1 [Compound 593, 2-(4-cyclobutylpiperazin-1-yl)-7-(2-methoxyethyl)-6,7,8,9-tetrahydro-5H-pyrimido[4,5-d]azepine]
FC1(F)CCC(CN2CCc3cnc(N4CCN(C5CCC5)CC4)nc3CC2)CC1 [Compound 594, 2-(4-cyclobutylpiperazin-1-yl)-7-[(4,4-difluorocyclohexyl)methyl]-6,7,8,9-tetrahydro-5H-pyrimido[4,5-d]azepine]
FC(F)(F)CCN1CCc2cnc(N3CCN(C4CCC4)CC3)nc2CC1 [Compound 595, 2-(4-cyclobutylpiperazin-1-yl)-7-(3,3,3-trifluoropropyl)-6,7,8,9-tetrahydro-5H-pyrimido[4,5-d]azepine]
CC1CCC[C@@H]2CN(c3ncc4c(n3)CCN(C3CCC3)CC4)CCN12 (stereo partly drawn) [Compound 596, 7-cyclobutyl-2-(6-methyloctahydro-2H-pyrido[1,2-a]pyrazin-2-yl)-6,7,8,9-tetrahydro-5H-pyrimido[4,5-d]azepine]
CC1CCC[C@@H]2CN(c3ncc4c(n3)CCN(CC3CCOCC3)CC4)CCN12 (stereo partly drawn) [Compound 597, 2-(6-methyloctahydro-2H-pyrido[1,2-a]pyrazin-2-yl)-7-(tetrahydro-2H-pyran-4-ylmethyl)-6,7,8,9-tetrahydro-5H-pyrimido[4,5-d]azepine]
CCN1CCN(c2ncc3c(n2)CCN(CC2CCOCC2)CC3)CC1 [Compound 598, 2-(4-ethylpiperazin-1-yl)-7-(tetrahydro-2H-pyran-4-ylmethyl)-6,7,8,9-tetrahydro-5H-pyrimido[4,5-d]azepine]
CCN1CCN(c2ncc3c(n2)CCN(C2CCC2)CC3)CC1 [Compound 599, 7-cyclobutyl-2-(4-ethylpiperazin-1-yl)-6,7,8,9-tetrahydro-5H-pyrimido[4,5-d]azepine]
CC(=O)N1CCN(c2ncc3c(n2)CCN(C2CCC2)CC3)CC1 [Compound 600, 2-(4-acetylpiperazin-1-yl)-7-cyclobutyl-6,7,8,9-tetrahydro-5H-pyrimido[4,5-d]azepine]
CC(C)(C)OC(=O)N1CCN(c2ncc3c(n2)CCN(C2CCC2)CC3)CC1 [Compound 601, tert-butyl 4-(7-cyclobutyl-6,7,8,9-tetrahydro-5H-pyrimido[4,5-d]azepin-2-yl)piperazine-1-carboxylate]
FC(F)(F)CN1CCN(c2ncc3c(n2)CCN(C2CCC2)CC3)CC1 [Compound 602, 7-cyclobutyl-2-[4-(2,2,2-trifluoroethyl)piperazin-1-yl]-6,7,8,9-tetrahydro-5H-pyrimido[4,5-d]azepine]
CNC(=O)c1ccc(N2CCN(c3ncc4c(n3)CCN(CC3CCOCC3)CC4)CC2)nc1 [Compound 603, N-methyl-6-{4-[7-(tetrahydro-2H-pyran-4-ylmethyl)-6,7,8,9-tetrahydro-5H-pyrimido[4,5-d]azepin-2-yl]piperazin-1-yl}nicotinamide]
CNC(=O)c1ccc(N2CCN(c3ncc4c(n3)CCN(C3CCC3)CC4)CC2)nc1 [Compound 604, 6-[4-(7-cyclobutyl-6,7,8,9-tetrahydro-5H-pyrimido[4,5-d]azepin-2-yl]piperazin-1-yl]-N-methylnicotinamide]
